These results are taken from patent US8193203B2, “Bicyclic compounds having activity at the CXCR4 receptor” (Allergan, Inc., priority 2008, dated 2012).

In the test the target is T1, human CXCR4 receptor (Homo sapiens, UniProt P61073).
T1 construct: expressed in transfected cells
Nature of the test: Measurement of intracellular Ca+2 responses (FLIPR), antagonism of the SDF-1α response. The test is classed as cell-based. Particulars: for IC50: HEK-Gqi5 cells stably expressing human CXCR4, Fluo-4 FLIPR, antagonism of SDF-1α 1.9 nM (EC65); for CXCR4 (% Inh): percent antagonism of SDF-1α 1.9 nM (EC65) response, HEK-Gqi5 human CXCR4 cells, value in brackets. How it is done: Measurement of Intracellular Ca^+2 Responses for CXCR4 Compounds
HEK-Gqi5 cells stably expressing the human CXCR4 receptor were utilized for these studies. The growth media for the CXCR4 receptor expressing cell line was DMEM high glucose medium supplemented with 10% fetal bovine serum (FBS), 1% antibiotic-antimycotic, 50 ug/ml hygromycin B, and 400 μg/ml geneticin. Ten thousand cells per well were plated into 384-well poly-D-lysine coated plates one day prior to use. On the day of the experiment, the cells were washed twice with Hank's Balanced Salt Solution supplemented with 20 mM hepes (HBSS/hepes buffer). The cells were then dye loaded with 2 uM Fluo-4 diluted in the HBSS/Hepes buffer and incubated at 37° C. for 40 minutes. Extracellular dye was removed by washing the cell plates four times prior to placing the plates in the FLIPR (Fluorometric Imaging Plate Reader, Molecular Devices). Ligands were diluted in HBSS/Hepes buffer and prepared in 384-well microplates. The positive control, stromal-cell derived factor-1 (SDF-1α), was diluted in HBSS/Hepes buffer with 4 mg/ml fatty acid free bovine serum albumin. Two drug additions were made by the FLIPR. The first drug addition was the test drug in concentrations ranging from 2.44 nM to 40,000 nM. After this addition, fluorescent measurements were taken. Any calcium release in response to this drug addition represents agonist activity of the compounds. The second drug addition was SDF-1α at a final concentration of 1.9 nM (EC65). Fluorescence measurements were also taken after this second drug addition and were used to determine the ability of the test compounds to antagonize the SDF-1α response. Results were expressed as EC50 and efficacy values, as well as IC50 and percent antagonism values. As controls, SDF-1α (CXCR4 agonist) and AMD3100 (CXCR4 antagonist) dose-response curves were also determined in each study.

T1 sequence (P61073 whole entry): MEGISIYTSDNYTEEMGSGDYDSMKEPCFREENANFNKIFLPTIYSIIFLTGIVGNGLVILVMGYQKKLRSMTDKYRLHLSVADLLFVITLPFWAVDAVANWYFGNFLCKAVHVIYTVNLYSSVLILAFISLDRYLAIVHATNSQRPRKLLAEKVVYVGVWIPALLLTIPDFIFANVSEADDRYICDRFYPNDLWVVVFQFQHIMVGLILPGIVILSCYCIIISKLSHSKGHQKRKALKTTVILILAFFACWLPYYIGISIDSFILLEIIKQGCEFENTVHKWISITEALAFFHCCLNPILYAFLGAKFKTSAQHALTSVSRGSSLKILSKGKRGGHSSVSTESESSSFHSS

On to `CCNCCNc1nc(NC2CCN(Cc3c(OC)cccc3N(C)C)CC2)c2ccccc2n1` [Compound 105, N4-(1-(2-(Dimethylamino)-6-methoxybenzyl)piperidin-4-yl)-N2-(2-(ethylamino)ethyl)quinazoline-2,4-diamine], for which the “CXCR4 (% Inh)” value came out at 98%. The same compound yielded an IC50 (values in nM) of 771 nM.
With `COc1cc2nc(NC[C@@H](O)CO)nc(NC3CCN(Cc4c(OCCN(C)C)cccc4N(C)C)CC3)c2cc1OC` [Compound 194, 3-({4-[(1-{2-(Dimethylamino)-6-[2-(dimethylamino)ethoxy]benzyl}piperidin-4-yl)amino]-6,7-dimethoxyquinazolin-2-yl}amino)propane-1,2-diol], the “CXCR4 (% Inh)” value is recorded as 96%. Besides, where the note is “values in nM”, inhibition was half-maximal at 74 nM (IC50).
The matching figures for `COc1cccc(N(C)C)c1CN1CCC(Nc2nc(NCCCNC(=O)OC(C)(C)C)nc3ccccc23)CC1` [Compound 225, tert-Butyl-3-(4-(1-(2-(dimethylamino)-6-methoxybenzyl)piperidin-4-ylamino)quinazolin-2-ylamino)propylcarbamate]: 88% and 614 nM.
Regarding `COc1cccc(N(C)C)c1CN1CCC(Nc2nc(NC[C@@H]3CCNC3)nc3ccccc23)CC1` [Compound 113, (R)—N-4-(1-(2-(Dimethylamino)-6-methoxybenzyl)piperidin-4-yl)-N2-(pyrrolidin-3-ylmethyl)quinazoline-2,4-diamine], the “CXCR4 (% Inh)” value came to 99%. The compound further displayed an IC50 (values in nM) of 129 nM.
Consider `CCN(CC)CCCNc1nc(NC2CCN(Cc3ccccc3N(C)C)CC2)c2cc(OC)c(OC)cc2n1` [Compound 30, N2-(3-(Diethylamino)propyl)-N4-(1-(2-(dimethylamino)benzyl)piperidin-4-yl)-6,7-dimethoxyquinazoline-2,4-diamine], for which the “CXCR4 (% Inh)” value was found to be 100%. Under “values in nM”, this compound returned an IC50 of 270 nM.
The matching figures for `COc1cccc(N(C)C)c1CN1CCC(Nc2nc(NCC(C)(C)CN(C)C)nc3ccccc23)CC1` [Compound 96, N2-(3-(Dimethylamino)-2,2-dimethylpropyl)-N4-(1-(2-(dimethylamino)-6-methoxybenzyl)piperidin-4-yl)quinazoline-2,4-diamine]: 100% and 240 nM.
The matching figures for `COc1cc2nc(NCc3cn(C)cn3)nc(NC3CCN(Cc4c(OCCN(C)C)cccc4N(C)C)CC3)c2cc1OC` [Compound 215, N˜4˜-(1-{2-(Dimethylamino)-6-[2-(dimethylamino)ethoxy]benzyl}piperidin-4-yl)-6,7-dimethoxy-N˜2˜-[(1-methyl-1H-imidazol-4-yl)methyl]quinazoline-2,4-diamine]: 99% and 73 nM.
Consider `COc1cccc(N(C)C)c1CN1CCC(Nc2nc(N3CCN(C(C)=O)CC3)nc3ccccc23)CC1` [Compound 86, 1-(4-(4-(1-(2-(Dimethylamino)-6-methoxybenzyl)piperidin-4-ylamino)quinazolin-2-yl)piperazin-1-yl)ethanone], for which the “CXCR4 (% Inh)” value was determined as 86%. Besides, it took 3500 nM to reach half-maximal inhibition (values given in μM) (IC50).
On to `COc1cc2nc(NCCCO)nc(NC3CCN(Cc4c(OCCN(C)C)cccc4N(C)C)CC3)c2cc1OC` [Compound 207, 3-({4-[(1-{2-(Dimethylamino)-6-[2-(dimethylamino)ethoxy]benzyl}piperidin-4-yl)amino]-6,7-dimethoxyquinazolin-2-yl}amino)propan-1-ol], for which the “CXCR4 (% Inh)” value was determined as 99%. Where the note is “values in nM”, the IC50 was 69 nM.
The matching figures for `COc1cccc(N(C)C)c1CN1CCC(Nc2nc(NCCN(C)C)nc3ccccc23)CC1` [Compound 153, N˜2˜-[2-(Dimethylamino)ethyl]-N˜4˜-{1-[2-(dimethylamino)-6-methoxybenzyl]piperidin-4-yl}quinazoline-2,4-diamine]: 98% and 118 nM.
Regarding `COc1cc2nc(NCCN(C)C)nc(NC3CCN(Cc4c(OCCCN(C)C)cccc4N(C)C)CC3)c2cc1OC` [Compound 203, N˜4˜-(1-{2-(Dimethylamino)-6-[3-(dimethylamino)propoxy]benzyl}piperidin-4-yl)-N˜2˜-[2-(dimethylamino)ethyl]-6,7-dim ethoxyquinazoline-2,4-diamine], the “CXCR4 (% Inh)” value was 94%. For the same compound, the IC50 (values in nM) stood at 66 nM.
The matching figures for `COc1cccc(N(C)C)c1CN1CCC(Nc2nc(NC3CCN(C)CC3)nc3ccccc23)CC1` [Compound 94, N4-(1-(2-(Dimethylamino)-6-methoxybenzyl)piperidin-4-yl)-N2-(1-methylpiperidin-4-yl)quinazoline-2,4-diamine]: 96% and 790 nM.
The matching figures for `COc1cc2nc(NCCCN(C)C)nc(NC3CCN(Cc4c(OCCN(C)C)cccc4N(C)C)CC3)c2cc1OC` [Compound 76, N4-(1-(2-(Dimethylamino)-6-(2-(dimethylamino)ethoxy)benzyl)piperidin-4-yl)-N-2-(3-(dimethylamino)propyl)-6,7-dimethoxyquinazoline-2,4-diamine]: 94% and 19 nM.
The matching figures for `COc1cc2nc(NCc3cncn3C)nc(NC3CCN(Cc4c(OCCN(C)C)cccc4N(C)C)CC3)c2cc1OC` [Compound 198, N˜4˜-(1-{2-(Dimethylamino)-6-[2-(dimethylamino)ethoxy]benzyl}piperidin-4-yl)-6,7-dimethoxy-N˜2˜-[(1-methyl-1H-imidazol-5-yl)methyl]quinazoline-2,4-diamine]: 98% and 36 nM.
With `COc1cc2nc(NCCN(C)C)nc(NC3CCN(Cc4c(OCCN(C)C)cccc4N(C)C)CC3)c2cc1OC` [Compound 229, N4-(1-(2-(Dimethylamino)-6-(2-(dimethylamino)ethoxy)benzyl)piperidin-4-yl)-N2-(2-(dimethylamino)ethyl)-6,7-dimethoxyquinazoline-2,4-diamine], the “CXCR4 (% Inh)” value is given as 96%. Besides, for the setting “values in nM”, the half-inhibitory concentration (IC50) was found to be 41 nM.
The matching figures for `COc1cc2nc(NCCCN)nc(NC3CCN(Cc4c(OC)cccc4N(C)C)CC3)c2cc1OC` [Compound 227]: 94% and 105 nM.
On to `COc1cccc(N(C)C)c1CN1CCC(Nc2nc(NC[C@H]3CCN(C(=O)OC(C)(C)C)C3)nc3ccccc23)CC1` [Compound 110, (R)-tert-Butyl 3-((4-(1-(2-(Dimethylamino)-6-methoxybenzyl)piperidin-4-ylamino)quinazolin-2-ylamino)methyl)pyrrolidine-1-carboxylate], for which the “CXCR4 (% Inh)” value was found to be 81%. In addition, where the note is “values given in μM”, 2200 nM corresponded to half-maximal inhibition (IC50).
The matching figures for `COc1cccc(N(C)C)c1CN1CCC(Nc2nc(NCC3CN(C(=O)OC(C)(C)C)C3)nc3ccccc23)CC1` [Compound 108, tert-Butyl 3-((4-(1-(2-(Dimethylamino)-6-methoxybenzyl)piperidin-4-ylamino)quinazolin-2-ylamino)methyl)azetidine-1-carboxylate]: 89% and 2000 nM.
In the case of `CCN(CC)CCCNc1nc(NC2CCN(Cc3c(OC)cccc3N(C)C)CC2)c2ccccc2n1` [Compound 48, N2-(3-(Diethylamino)propyl)-N4-(1-(2-(dimethylamino)-6-methoxybenzyl)piperidin-4-yl)quinazoline-2,4-diamine], the “CXCR4 (% Inh)” value is 100%. This compound returned an IC50 (values in nM) of 150 nM.
`CCN(CC)CCCNc1nc(NC2CCN(Cc3ccccc3N3CCCC3)CC2)c2cc(OC)c(OC)cc2n1` [Compound 51]: the “CXCR4 (% Inh)” value was found to be 92%. This compound came in with an IC50 (values given in μM) of 1100 nM.
For `CNCCCCNc1nc(NC2CCN(Cc3c(OC)cccc3N(C)C)CC2)c2ccccc2n1` [Compound 102, N4-(1-(2-(Dimethylamino)-6-methoxybenzyl)piperidin-4-yl)-N2-(4-(methylamino)butyl)quinazoline-2,4-diamine], the “CXCR4 (% Inh)” value worked out at 97%. Where the note is “values in nM”, the IC50 came out at 215 nM.
Take `COc1cccc(N(C)C)c1CN1CCC(Nc2nc(N3CC3)nc3ccccc23)CC1` [Compound 92, 2-(Aziridin-1-yl)-N-(1-(2-(dimethylamino)-6-methoxybenzyl)piperidin-4-yl)quinazolin-4-amine]: the “CXCR4 (% Inh)” value was 75%. Besides, the IC50 (values given in μM) is 2100 nM.
As for `COc1cccc(N(C)C)c1CN1CCC(Nc2nc(NCCN)nc3ccccc23)CC1` [Compound 125, N2-(2-Aminoethyl)-N4-(1-(2-(dimethylamino)-6-methoxybenzyl)piperidin-4-yl)quinazoline-2,4-diamine], the “CXCR4 (% Inh)” value came out at 97%. This compound also yielded an IC50 (values in nM) of 268 nM.
The matching figures for `COc1cccc(N(C)C)c1CN1CCC(Nc2nc(NCCC3CCCN3C)nc3ccccc23)CC1` (stereo not drawn) [Compound 97, N4-(1-(2-(Dimethylamino)-6-methoxybenzyl)piperidin-4-yl)-N2-(2-(1-methylpyrrolidin-2-yl)ethyl)quinazoline-2,4-diamine]: 100% and 140 nM.

Usually IC50 stands for the point on the concentration scale where inhibition reaches its midpoint. A lower IC50 goes with greater potency.
